Measured values reported in publication PMC9038752, “Molecular mechanisms of bifunctional vitamin D receptor agonist-histone deacetylase inhibitor hybrid molecules in triple-negative breast cancer” (Scientific Reports, 2022).
≈ marks a conversion by molar mass, not a printed value.

Tests used:
MB-MDA231 cells = experiment: RealTime-Glo MT cell viability assay, MB-MDA231; assay type: cell-based; conditions: human TNBC cell line MB-MDA231, 24 h
Description: (§1) Figure 5 (a) and (b) Analysis of induced Cyp24a1 expression in 4TO7 (a) and 4T1 (b) cells to test for VDR agonism of DK-406 and heterocyclic analogues after 24 h treatment. c-e. Analysis of the cytotoxicity of hybrid compounds after 24 h using the MTGlo assay (see Methods for details) in 4TO7 (c), 4T1 (d) and MDA-MB-231 (e) cells. […] Each condition was compared to control. *: p ≤ 0.05, **: p ≤ 0.01, ***: p ≤ 0.001, ****: p ≤ 0.0001, ns: not significant.
(§2) As previously, we were interested in studying the efficacy of hybrids in models of TNBC. We used the 4T1 cell line[20] as well as the related TNBC cell line 4TO7, which was derived from the same mouse tumor as 4T1 cells in Balb/c mice[33]. 4TO7 cells readily form primary tumors. […] These lines also have the advantage that anti-tumor efficacy studies can be performed in Balb/c mice, which have intact immune systems. Compounds were initially tested for VDR agonist activity in 4TO7 cells by screening induction of the VDR target gene Cyp24a1. […]
(§3) The assay was performed to assess cell viability in order to determine analogue cytotoxicity. […] Luminescence was measured using a 1420 Luminescence Counter Victor Light (PerkinElmer), normalized to control, and plotted. […]

4T1 cells = experiment: RealTime-Glo MT cell viability assay, 4T1; assay type: cell-based, mouse; conditions: 24 h
Description: as §1, §2, §3

4TO7 cells = experiment: RealTime-Glo MT cell viability assay, 4TO7; assay type: cell-based, mouse; conditions: 24 h
Description: as §1, §2, §3

[1] = Aqueous solubility after sonication; assay type: physicochemical; conditions: after sonication for 30 min
From the text: The synthesis of the B-ring series mirrored that of the A-ring series producing B-ring hybrids AM-191 (n = 1, 27a), AM-192 (n = 3, 27b), and AM-193 (n = 5, 27c) in 9 steps (Fig. 3).

[2] = test system: 4T1 mouse model of triple negative breast cancer; set-up: method as in PMID 28847749; conditions: aggressive 4T1 mouse model of TNBC; cited from earlier work

Row | Compound | cytotoxicity (MT-Glo viability) (MB-MDA231 cells) | cytotoxicity (MT-Glo viability) (4T1 cells) | potency in MT-Glo assay relative to DK-406 (4T1 cells) | cytotoxicity (MT-Glo viability) (4TO7 cells) | potency in MT-Glo assay relative to DK-406 (4TO7 cells) | higher solubility in water compared to DK-367 [1] | solubility at 30 min ([1]; water) | tumor growth and metastasis [2]
1 | CCC(CC)(c1ccc(OCCCCCC(=O)NO)cc1)c1ccc(OCC(O)C(C)(C)C)c(C)n1 (centres unmarked) [AM-193] | potency of AM-193 as a cytotoxic agent was also confirmed | most potent compound tested | at least tenfold | most potent compound tested | at least tenfold | 27% | 2.43 µg/mL (≈ 4.85 µM) | 
2 | CCC(CC)(c1ccc(C(=O)NCCCCCC(=O)NO)cc1)c1ccc(OCC(O)C(C)(C)C)c(C)c1 (centres unmarked) [DK-406] |  |  |  |  |  |  |  | reduced tumor growth and metastasis
